# Test results reported in PubChem BioAssay AID602267 (Broad Institute, 2012).
# The source made the active and inactive calls.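 The calls were made as follows: active = signal falls with dose and the fitted half-maximal concentration is at or below twice the top valid tested dose; inconclusive = flat curve with 30 to 70% inhibition, or poor fit; inactive = wrong direction, flat within 30%, or potency beyond limit.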
# Biological target: Golgi-associated PDZ and coiled-coil motif-containing protein (Homo sapiens) (UniProt Q9HD26)
# Assay: blockers of CAL PDZ ligand groove binding – biochemical, fluorescence polarization, untagged CAL PDZ, cherry-pick, dose response (AID 602267);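 as to activity change, negative = inhibition: 0% = DMSO neutral wells and -100% = excess unlabeled competitor peptide wells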
# Conditions: purified CAL PDZ, TMR-peptide fluorescence polarization, 1 h
row,SMILES,AC50 [µM]
1,O=C(O)CSc1cc(NS(=O)(=O)c2cccc([N+](=O)[O-])c2)c2ccccc2c1O,15.9
2,O=C(O)CSc1cc(NS(=O)(=O)c2ccc(Cl)cc2)c2ccccc2c1O,32.9
3,CCOc1ccc(S(=O)(=O)Nc2cc(SCC(=O)O)c(O)c3ccccc23)cc1,39

# Same assay, conditions: purified CAL PDZ, TMR-peptide fluorescence polarization, 1 h; at 16 µM (top of the series)
row,SMILES,"activity change, negative = inhibition"
1,COc1cc(C2NC(=O)NC(C)=C2C(=O)OC2CCCCC2)cc(Br)c1O (centres undefined),inactive

# Same assay, conditions: purified CAL PDZ, TMR-peptide fluorescence polarization, 1 h; at 50 µM (top of the series)
row,SMILES,"activity change, negative = inhibition"
1,COc1ccc(S(=O)(=O)N2CC(=O)Nc3ccccc32)cc1F,inactive
2,COc1cc(NS(=O)(=O)c2ccc(NC(=S)Nc3ccccc3)cc2)nc(OC)n1,inactive
3,O=C(NCc1ccccc1)c1cc2ccc(O)cc2oc1=O,inactive
4,Cc1ccc(/C=N/NC(=O)NN(C)c2ncc(C(F)(F)F)cc2Cl)cc1,inactive
5,COc1ccc(CN2CCCC(N3CCN(c4cccc(Cl)c4)CC3)C2)cc1OC (centres undefined),inactive
6,COc1ccccc1NC(=O)c1c([N+](=O)[O-])cnn1C,inactive
7,O=C(CN1C(=O)NC2(CCCC2)C1=O)Nc1ccc(F)c(F)c1F,inactive
8,O=C(c1ccccc1Cl)N(Cc1ccc(Cl)c(Cl)c1)N1C(=O)CCCC1=O,inactive
9,COC(=O)CN1C(=O)C(O)=C(C(C)=O)C1c1ccc([N+](=O)[O-])cc1 (centres undefined),inactive
10,CCNS(=O)(=O)c1ccc(CCC(=O)N2CCCC2)cc1,inactive
11,Cc1ccc(CN(Cc2cccnc2)C(=S)Nc2cccc(Cl)c2C)cc1,inactive
12,O=C(NNC(=O)c1ccc(Cl)c(Cl)c1)c1cccnc1,inactive
13,C=CCn1c(NC(=O)c2ccco2)nc2ccccc21,inactive
14,CCOCCCNC(=O)c1ccc2c(=O)n(Cc3ccc4c(c3)OCO4)c(=S)[nH]c2c1,inactive
15,C=CCOc1ccc2ccccc2c1CNn1cn[nH]c1=S,inactive
16,Cc1cc(C)c(C(=O)N2CCC3(CC2)OCCO3)c(C)c1,inactive
17,O=C(CCCn1c(=S)[nH]c2cc3c(cc2c1=O)OCO3)N1CCN(c2ccc(Cl)cc2)CC1,inactive
18,CN(C)c1ccc(P(=O)(OC2CCCCC2)C(O)c2cccnc2)cc1 (centres undefined),inactive
19,Cc1nc2ccc(Br)cn2c1C(=O)N/N=C\c1ccc(C(C)C)cc1,inactive
20,COCc1cc(C)nc(SCc2ccccc2)c1C#N,inactive
21,COc1cc(N(C)C)ccc1C=c1c2ccccc2n2c1cc(-c1ccccc1)[n+]2C,inactive
22,CCOC(=O)C1(CCOc2ccccc2)CCN(CC(O)CO)CC1 (centres undefined),inactive
23,C=CCN1C(=O)/C(=C/c2ccsc2)SC1=S,inactive

row,SMILES,"activity change, negative = inhibition"
1,CN1CC(=O)N(CC(=O)Nc2ccc(Br)cc2F)C1=O,inactive
2,C/C(=N/N1CCN(c2ccccn2)CC1)c1ccc([N+](=O)[O-])cc1,inactive
3,Cc1cc(C(=O)Nc2ccccc2Cl)c2ccccc2n1,inactive
4,O=C(NCCN1C(=O)S/C(=C\c2ccc(Cl)c(Cl)c2)C1=O)C1COc2ccccc2O1 (centres undefined),inactive
5,COCCOC(=O)c1c(C)oc2ccc(OS(C)(=O)=O)cc12,inactive
6,O=C(NCc1ccc(Cl)cc1)C(=O)NCC1OCCN1C(=O)c1ccc(Cl)cc1 (centres undefined),inactive
7,CCC(=O)c1ccc(N2CCC(C)CC2)c(F)c1,inactive
8,CN(CC1CCCO1)S(=O)(=O)c1ccc(C(=O)Nc2ccc([N+](=O)[O-])cc2)cc1 (centres undefined),inactive
9,O=C(O)c1ccc(Oc2cc(Oc3ccc(C(=O)O)cc3)cc([N+](=O)[O-])c2)cc1,inactive
10,C=CCNC(=S)Nc1ccc(C)c(S(=O)(=O)N2CCCCC2)c1,inactive
11,CC(C)(C)OC(=O)N[C@@H](Cc1c[nH]c2ccccc12)c1nnc(SCC(N)=O)o1,inactive
12,Cc1c(Cl)c(C(=O)N2CCCC2)nn1C,inactive
13,Brc1cccc(CNCC2CCCO2)c1 (centres undefined),inactive
14,CC(=O)NC1C(=O)N(CCN2CCOCC2)c2ccc(Cl)cc21 (centres undefined),inactive
15,CN(C)C1(CNC(=O)C2CCC(=O)N(CCc3ccc(Cl)cc3)C2)CCCCC1 (centres undefined),inactive
16,N/C(=N\OC(=O)Cc1ccccc1[N+](=O)[O-])c1cccnc1,inactive
17,Cc1cccc(CN2CCc3c([nH]c4ccccc34)C2CC(C)C)n1 (centres undefined),inactive
18,CC(=O)Nc1sc2c(c1C(c1ccccn1)N1CCN(C)CC1)CCCC2 (centres undefined),inactive
19,Cc1ccc(S(=O)(=O)N2CCN(C(=O)c3ccccn3)CC2)cc1,inactive
20,CCOc1ccc(C(=O)NC2CC3CCCC(C2)N3Cc2ccccc2)cc1 (centres undefined),inactive
21,CCNC(=S)N(CCN(CC)CC)Cc1cc2cc3c(cc2[nH]c1=O)OCCO3,inactive
22,N#C/C(=C\c1c[nH]c2ccccc12)C(=O)NC1CC1,inactive
23,COc1cccc(CN2CCN(C3CSCCSC3)CC2CCO)c1 (centres undefined),inactive

row,SMILES,"activity change, negative = inhibition"
1,COn1c(SCc2ccccc2)nc2ccccc2c1=O,inactive
2,COc1cc(C(=O)ON=C2C(C)=CC(=O)C=C2C)cc(OC)c1OC,inactive
3,Cc1ccc(S(=O)(=O)N2CCN(CCC#N)CC2)cc1,inactive
4,CC1CCCCC1NCC(=O)NCc1ccc(F)cc1 (centres undefined),inactive
5,Cc1cc(/C=C2\SC(=O)N(C)C2=O)c(C)n1-c1ccc(O)cc1,inactive
6,CSC1=NP(=S)(SC)N2CCCC2=C1C#N (centres undefined),inactive
7,CC1CCN(CCCNC(=O)c2ccc3c(=O)n(Cc4ccc(Cl)cc4)c(=S)[nH]c3c2)CC1,inactive
8,CCN(CC)S(=O)(=O)c1cc(C(=O)Oc2ccccc2OC)ccc1OC,inactive
9,CCC(=O)Nc1ccc(S(=O)(=O)NCc2ccco2)cc1,inactive
10,Cc1ccc(S(=O)(=O)N2CCN(C(=O)N(C)C)CC2)cc1,inactive
11,O=C(O)c1[nH]c2ccccc2c1C(c1ccccc1)c1c(C(=O)O)[nH]c2ccccc12,inactive
12,COc1ccc(C(C)=O)cc1COC(=O)CNC(=O)c1ccccc1F,inactive
13,O=C(CN(Cc1ccccc1)S(=O)(=O)c1ccc(F)cc1)NCCC1=CCCCC1,inactive
14,Cc1cccc(C(=O)Nc2nnc(COc3ccccc3)s2)c1,inactive
15,S=C(NCCc1ccccc1)NC1CCC(NC(=S)NCCc2ccccc2)CC1 (centres undefined),inactive
16,CC(C)CNC(=O)CN1C(=O)NC(Cc2c[nH]c3ccccc23)C1=O (centres undefined),inactive
17,Cc1cc(NC(=O)CSc2nnc(-c3ccccc3)c(-c3ccccc3)n2)no1,inactive
18,CC(c1ccccc1)N1CCN(C(=O)CCl)CC1 (centres undefined),inactive
19,COC(=O)N/N=C/c1sc(N2CCCCC2)nc1-c1cccs1,inactive
20,O=C(OCc1ccc(Br)cc1)c1cccnc1,inactive
21,CCC(=O)N1CCC(C(N)=O)(N2CCCCC2)CC1,inactive
22,COCC(=O)Nc1ccc2nc3n(c(=O)c2c1)CCCCC3,inactive
23,CCOc1ccc(C(=O)NCC(=O)N2CCC(C)CC2)cc1OCC,inactive

row,SMILES,"activity change, negative = inhibition"
1,CC1Cc2ccccc2N1C(=O)CNc1ccccc1N1CCCCC1 (centres undefined),inactive
2,COc1cc(OC)cc(C(=O)N[C@H](C(=O)Nc2nc3ccc(S(C)(=O)=O)cc3s2)C(C)C)c1,inactive
3,Cc1ccc2nc(NS(C)(=O)=O)sc2c1,inactive
4,Cc1nn(C)cc1CN(C)C(=O)c1nn2c(c1Br)NC(c1cccs1)CC2C(F)(F)F (centres undefined),inactive
5,CCOc1ccc(C2=Nn3c(nnc3-c3ccco3)SC2)cc1,inactive
6,O=C1c2ccccc2C(=O)N1CSc1nnnn1-c1ccccc1,inactive
7,COc1cc(C(=O)NC(C)CCc2ccccc2)cc(OC)c1OC (centres undefined),inactive
8,Cc1c(C)c2cc3c4c(oc3c(C)c2oc1=O)CCCC4,inactive
9,O=C(CCc1nc(-c2ccc(Cl)cc2)no1)NC1CCCCC1,inactive
10,c1ccc(C(c2ccccc2)c2cccnc2)cc1,inactive
11,O=C(NCC1CCCO1)c1cn(-c2ccccc2)nc1-c1ccc(F)cc1 (centres undefined),inactive
12,O=C(Oc1c(CN2CCOCC2)cc(Cl)c2cccnc12)c1ccc(F)cc1,inactive
13,O=C(NCCc1ccccc1)C1CCC(=O)N(CCCN2CCCC2=O)C1 (centres undefined),inactive
14,O=C(CNCc1ccccc1)Nc1ccc(F)cc1,inactive
15,Cc1sc2ncn(CC(=O)NCCCC(=O)N3CCN(Cc4ccc5c(c4)OCO5)CC3)c(=O)c2c1C,inactive
16,O=C(c1ccc([N+](=O)[O-])cc1)N1CCC(Cc2ccccc2)CC1,inactive
17,CC1CCC(NS(=O)(=O)c2ccc3c(c2)n(C)c(=O)c(=O)n3C)CC1 (centres undefined),inactive
18,CN(C)c1ccc(C=c2c3cc(O)ccc3n3c2cc(-c2ccccc2)[n+]3C)cc1,inactive
19,CCN(CCCn1c(=S)[nH]c2ccc(N3CCOCC3)cc2c1=O)c1ccccc1,inactive
20,O=C(COc1ccccc1)N1CCCCCCC1,inactive
21,O=C(Nc1nc2ccccc2[nH]1)c1cc2ccccc2o1,inactive
